# Earlier results in patent US20110135569A1, “METHOD FOR THERAPEUTIC ADMINISTRATION OF RADIONUCLEOSIDES” (Peak Biosciences Inc., priority 2007, published 2011).
# Assays:
# [1] = tested on: replicating cancer cells; settings: low picomolar range, e.g. value
# [2] = human subjects; locally injected or intra-arterially infused
smiles,measurement,setting,value
"O=c1[nH]c(=O)n([C@H]2C[C@H](O)[C@@H](CO)O2)cc1[125I] [^125IUDR, 5-[^125I]-iodouridine 2′-deoxyribonucleoside]",concentration able to destroy the chromosomes of replicating cancer cells,[1],5 picomoles/liter
same,plasma half-life,[2],less than 5 minutes
